From US20060178323A1, “Methods for the treatment of chronic pain and compositions therefor” (priority 2002, published 2006)

Tests used:
Type in all cases: in vivo
[1] = test system: mechanical hyperalgesia in the Seltzer model of neuropathic pain in the rat; assay: Seltzer model, development of mechanical hyperalgesia, repeated administration of Compound A
Description: (§1) Two animal models of chronic neuropathic pain may be used that involve some form of peripheral nerve damage. In the Seltzer model (Seltzer et al. (1990) Pain 43: 205-218) rats are anaesthetised and a small incision made mid-way up one thigh (usually the left) to expose the sciatic nerve. The nerve is carefully cleared of surrounding connective tissues at a site near the trochanter just distal to the point at which the posterior biceps semitendinosus nerve branches off the common sciatic nerve. A 7-0 silk suture is inserted into the nerve with a ⅜ curved, reversed-cutting mini-needle, and tightly ligated so that the dorsal ⅓ to ½ of the nerve thickness is held within the ligature. The muscle and skin are closed with sutures and clips and the wound dusted with antibiotic powder. In sham animals the sciatic nerve is exposed but not ligated and the wound closed as in nonsham animals.
(§2) In all chronic pain models (inflammatory and neuropathic) mechanical hyperalgesia is assessed by measuring paw withdrawal thresholds of both hindpaws to an increasing pressure stimulus using an Analgesymeter (Ugo-Basile, Milan). Mechanical allodynia is assessed by measuring withdrawal thresholds to non-noxious mechanical stimuli applied with von Frey hairs to the plantar surface of both hindpaws. Thermal hyperalgesia is assessed by measuring withdrawal latencies to a noxious thermal stimulus applied to the underside of each hindpaw. With all models, mechanical hyperalgesia and allodynia and thermal hyperalgesia develop within 1-3 days following surgery and persist for at least 50 days. For the assays described herein, drugs may be applied before and after surgery to assess their effect on the development of hyperalgesia, particularly approximately 14 days following surgery, to determine their ability to reverse established hyperalgesia.
(§3) The percentage reversal of hyperalgesia is calculated as follows: [formula] In the experiments disclosed herein, Wistar rats (male) are employed in pain models described above. Rats weigh approximately 120-140 grams at the time of surgery. All surgery is performed under enflurane/O2 inhalation anaesthesia. In all cases the wound is closed after the procedure and the animal allowed to recover. In all pain models employed, after a few days in all but the sham operated animals, a marked mechanical and thermal hyperalgesia and allodynia develops in which there is a lowering of pain threshold and an enhanced reflex withdrawal response of the hind-paw to touch, pressure or thermal stimuli. […] In the majority of animals the toes of the affected hind paw are held together and the foot turned slightly to one side; in some rats the toes are also curled under. The gait of the ligated rats varies, but limping is uncommon. […] The rats tend to be very sensitive to touch and may vocalise. Otherwise the general health an condition of the rats is good.
(§4) The effect of Compound A on mechanical hyperalgesia and allodynia is examined in the Seltzer model of neuropathic pain in the rat (Seltzer et al, 1990) as described above. With this model mechanical hyperalgesia and allodynia is induced in the ipsilateral (ligated) hindpaw approximately 1 day following surgery and persists for some weeks. Mechanical hyperalgesia is assessed by measuring paw withdrawal thresholds of both hindpaws to an increasing pressure stimulus using an Analgesymeter (Ugo-Basile, Milan). Mechanical allodynia is assessed by measuring withdrawal thresholds to non-noxious mechanical stimuli applied with von Frey hairs to the plantar surface of both hindpaws.
Experimental Protocol: The effect of Compound A on the development of mechanical hyperalgesia is tested by administering the compound or vehicle (20% cremaphor/water) orally twice daily for 7 days starting on the day of surgery. Prior to surgery paw withdrawal thresholds of ipsilateral (ligated) and contralateral (non-ligated) paws are approximately 100 g. […]

[2] = test system: mechanical hyperalgesia in the Seltzer model of neuropathic pain in the rat; assay: Seltzer model, established neuropathic hyperalgesia, repeated administration of Compound A
Description: as §1, §2, §3, §4
Inhibition of MMP7 may also reduce established mechanical hyperalgesia. 7 days following ligation ipsilateral paw withdrawal thresholds are reduced to approximately 65 g compared to contralteral readings of approximately 100 g, indicating mechanical hyperalgesia. Compound A (3 and 30 mg/kg) or vehicle (20% cremaphor/water) is then administered orally twice daily for 10 days. […]

[3] = test system: mechanical hyperalgesia in the Seltzer model of neuropathic pain in the rat; assay: Seltzer model, perioperative administration of Compound A on neuropathic hyperalgesia; details: for Paw withdrawal threshold: ipsilateral paw
Description: as §1, §2, §3, §4
Compound A also affects the development of hyperalgesia following peri-operative dosing. […] The effect of the two doses of Compound A lasted for approximately 7 days by which time the degreee of hyperalgesia is similar to that seen in vehicle treated animals.
All animals received administration of vehicle or compound 1 h prior to surgery (pre) and 5 h following surgery (post).

CC[C@H](C(=O)NO)[C@H](C(=O)N1CCCC[C@H]1C(=O)NC(C)C)c1ccc(Cl)cc1 [Compound A, (S)-1-[(2S,3S)-2-(4-Chloro-phenyl)-3-hydroxycarbamoyl-pentanoyl]-piperidine-2-carboxylic acid isopropylamide]
ipsilateral withdrawal thresholds versus vehicle treated animals ([1]; 3 days after the end of compound administration): remain elevated above those of vehicle treated animals
withdrawal thresholds of contralateral paws ([1]; contralateral (non-ligated) paw, following surgery, vehicle or compound administration, throughout the experiment): do not significantly change
Paw withdrawal threshold ([1]; ipsilateral paw, 3 mg/kg orally twice daily for 7 days from day of surgery, day 1 of treatment): 72.5 ± 2.8 g
Paw withdrawal threshold ([1]; ipsilateral paw, 3 mg/kg orally twice daily for 7 days from day of surgery, day 2 of treatment): 76.7 ± 3.1 g
Paw withdrawal threshold ([1]; ipsilateral paw, 3 mg/kg orally twice daily for 7 days from day of surgery, day 3 of treatment): 78.3 ± 2.5 g
Paw withdrawal threshold ([1]; ipsilateral paw, 3 mg/kg orally twice daily for 7 days from day of surgery, day 4 of treatment): 83.3 ± 2.8 g
Paw withdrawal threshold ([1]; ipsilateral paw, 3 mg/kg orally twice daily for 7 days from day of surgery, day 5 of treatment): 83.3 ± 5.7 g
Paw withdrawal threshold ([1]; ipsilateral paw, 3 mg/kg orally twice daily for 7 days from day of surgery, day 7 of treatment): 86.7 ± 4.8 g
Paw withdrawal threshold ([1]; ipsilateral paw, 3 mg/kg orally twice daily for 7 days from day of surgery, day 10 (3 days after end of dosing)): 90.0 ± 4.7 g
Paw withdrawal threshold ([1]; ipsilateral paw, 3 mg/kg orally twice daily for 7 days from day of surgery, pre-surgery (baseline)): 100.8 ± 2.4 g
Paw withdrawal threshold ([1]; ipsilateral paw, 30 mg/kg orally twice daily for 7 days from day of surgery, day 1 of treatment): 78.3 ± 2.8 g
Paw withdrawal threshold ([1]; ipsilateral paw, 30 mg/kg orally twice daily for 7 days from day of surgery, day 2 of treatment): 80.8 ± 4.0 g
Paw withdrawal threshold ([1]; ipsilateral paw, 30 mg/kg orally twice daily for 7 days from day of surgery, day 3 of treatment): 83.3 ± 4.9 g
Paw withdrawal threshold ([1]; ipsilateral paw, 30 mg/kg orally twice daily for 7 days from day of surgery, day 4 of treatment): 85.8 ± 4.4 g
Paw withdrawal threshold ([1]; ipsilateral paw, 30 mg/kg orally twice daily for 7 days from day of surgery, day 5 of treatment): 83.2 ± 3.1 g
Paw withdrawal threshold ([1]; ipsilateral paw, 30 mg/kg orally twice daily for 7 days from day of surgery, day 7 of treatment): 82.0 ± 5.8 g
Paw withdrawal threshold ([1]; ipsilateral paw, 30 mg/kg orally twice daily for 7 days from day of surgery, day 10 (3 days after end of dosing)): 86.0 ± 4.0 g
Paw withdrawal threshold ([1]; ipsilateral paw, 30 mg/kg orally twice daily for 7 days from day of surgery, pre-surgery (baseline)): 97.5 ± 2.1 g
withdrawal thresholds after repeated dosing ([1]; ipsilateral paw, orally twice daily for 7 days from day of surgery, vehicle approximately 60 g): 80 to 90 g
ipsilateral paw withdrawal threshold ([2]; 3 mg/kg orally twice daily for 10 days starting 7 days after ligation, day 1 of study): 62.5 ± 2.1 g
ipsilateral paw withdrawal threshold ([2]; 3 mg/kg orally twice daily for 10 days starting 7 days after ligation, day 2 of study): 68.3 ± 1.1 g
ipsilateral paw withdrawal threshold ([2]; 3 mg/kg orally twice daily for 10 days starting 7 days after ligation, day 3 of study): 67.5 ± 2.5 g
ipsilateral paw withdrawal threshold ([2]; 3 mg/kg orally twice daily for 10 days starting 7 days after ligation, day 4 of study): 80.0 ± 2.2 g
ipsilateral paw withdrawal threshold ([2]; 3 mg/kg orally twice daily for 10 days starting 7 days after ligation, day 5 of study): 80.0 ± 3.4 g
ipsilateral paw withdrawal threshold ([2]; 3 mg/kg orally twice daily for 10 days starting 7 days after ligation, day 6 of study): 80.8 ± 2.4 g
ipsilateral paw withdrawal threshold ([2]; 3 mg/kg orally twice daily for 10 days starting 7 days after ligation, day 7 of study): 80.8 ± 2.4 g
ipsilateral paw withdrawal threshold ([2]; 3 mg/kg orally twice daily for 10 days starting 7 days after ligation, day 8 of study): 80.8 ± 2.4 g
ipsilateral paw withdrawal threshold ([2]; 3 mg/kg orally twice daily for 10 days starting 7 days after ligation, day 9 of study): 75.8 ± 3.5 g
ipsilateral paw withdrawal threshold ([2]; 3 mg/kg orally twice daily for 10 days starting 7 days after ligation, day 10 of study): 81.7 ± 3.1 g
ipsilateral paw withdrawal threshold ([2]; 3 mg/kg orally twice daily for 10 days starting 7 days after ligation, day 11 of study): 76.7 ± 2.1 g
ipsilateral paw withdrawal threshold ([2]; 3 mg/kg orally twice daily for 10 days starting 7 days after ligation, day 12 of study): 78.3 ± 2.5 g
ipsilateral paw withdrawal threshold ([2]; 3 mg/kg orally twice daily for 10 days starting 7 days after ligation, day 13 of study): 79.2 ± 2.4 g
ipsilateral paw withdrawal threshold ([2]; 3 mg/kg orally twice daily for 10 days starting 7 days after ligation, day 14 of study): 75.8 ± 3.5 g
ipsilateral paw withdrawal threshold ([2]; 3 mg/kg orally twice daily for 10 days starting 7 days after ligation, day 15 of study): 76.7 ± 2.5 g
ipsilateral paw withdrawal threshold ([2]; 3 mg/kg orally twice daily for 10 days starting 7 days after ligation, day 18 of study): 75.8 ± 2.4 g
ipsilateral paw withdrawal threshold ([2]; 3 mg/kg orally twice daily for 10 days starting 7 days after ligation, day 21 of study): 74.2 ± 1.5 g
ipsilateral paw withdrawal threshold ([2]; 3 mg/kg orally twice daily for 10 days starting 7 days after ligation, day 23 of study): 70.0 ± 1.8 g
ipsilateral paw withdrawal threshold ([2]; 3 mg/kg orally twice daily for 10 days starting 7 days after ligation, predose): 65.8 ± 0.8 g
ipsilateral paw withdrawal threshold ([2]; 30 mg/kg orally twice daily for 10 days starting 7 days after ligation, day 1 of study): 68.3 ± 2.1 g
ipsilateral paw withdrawal threshold ([2]; 30 mg/kg orally twice daily for 10 days starting 7 days after ligation, day 2 of study): 68.3 ± 1.7 g
ipsilateral paw withdrawal threshold ([2]; 30 mg/kg orally twice daily for 10 days starting 7 days after ligation, day 3 of study): 71.7 ± 2.1 g
ipsilateral paw withdrawal threshold ([2]; 30 mg/kg orally twice daily for 10 days starting 7 days after ligation, day 4 of study): 78.3 ± 4.8 g
ipsilateral paw withdrawal threshold ([2]; 30 mg/kg orally twice daily for 10 days starting 7 days after ligation, day 5 of study): 84.2 ± 2.4 g
ipsilateral paw withdrawal threshold ([2]; 30 mg/kg orally twice daily for 10 days starting 7 days after ligation, day 6 of study): 84.2 ± 4.4 g
ipsilateral paw withdrawal threshold ([2]; 30 mg/kg orally twice daily for 10 days starting 7 days after ligation, day 7 of study): 83.3 ± 5.4 g
ipsilateral paw withdrawal threshold ([2]; 30 mg/kg orally twice daily for 10 days starting 7 days after ligation, day 8 of study): 83.3 ± 2.5 g
ipsilateral paw withdrawal threshold ([2]; 30 mg/kg orally twice daily for 10 days starting 7 days after ligation, day 9 of study): 79.2 ± 3.0 g
ipsilateral paw withdrawal threshold ([2]; 30 mg/kg orally twice daily for 10 days starting 7 days after ligation, day 10 of study): 85.0 ± 2.6 g
ipsilateral paw withdrawal threshold ([2]; 30 mg/kg orally twice daily for 10 days starting 7 days after ligation, day 11 of study): 82.5 ± 3.4 g
ipsilateral paw withdrawal threshold ([2]; 30 mg/kg orally twice daily for 10 days starting 7 days after ligation, day 12 of study): 80.8 ± 2.4 g
ipsilateral paw withdrawal threshold ([2]; 30 mg/kg orally twice daily for 10 days starting 7 days after ligation, day 13 of study): 80.0 ± 2.6 g
ipsilateral paw withdrawal threshold ([2]; 30 mg/kg orally twice daily for 10 days starting 7 days after ligation, day 14 of study): 78.3 ± 1.7 g
ipsilateral paw withdrawal threshold ([2]; 30 mg/kg orally twice daily for 10 days starting 7 days after ligation, day 15 of study): 78.3 ± 2.5 g
ipsilateral paw withdrawal threshold ([2]; 30 mg/kg orally twice daily for 10 days starting 7 days after ligation, day 18 of study): 77.5 ± 2.1 g
ipsilateral paw withdrawal threshold ([2]; 30 mg/kg orally twice daily for 10 days starting 7 days after ligation, day 21 of study): 81.7 ± 2.5 g
ipsilateral paw withdrawal threshold ([2]; 30 mg/kg orally twice daily for 10 days starting 7 days after ligation, day 23 of study): 77.5 ± 2.1 g
ipsilateral paw withdrawal threshold ([2]; 30 mg/kg orally twice daily for 10 days starting 7 days after ligation, predose): 66.7 ± 2.1 g
ipsilateral paw withdrawal thresholds compared to vehicle treated animals ([2]; after 4 days of drug treatment, 3 and 30 mg/kg orally twice daily): significant increase in ipsilateral paw withdrawal thresholds
persistence of increased thresholds following cessation of compound administration ([2]; at the higher dose (30 mg/kg)): up to 2 weeks
duration of the effect of the two doses ([3]; 30 mg/kg oral 1 h prior to and 5 h following surgery): approximately 7 days
degree of hyperalgesia (ipsilateral paw withdrawal thresholds versus vehicle) ([3]; 30 mg/kg oral 1 h prior to surgery and again 5 h following surgery): significant reduction in the degree of hyperalgesia
Paw withdrawal threshold ([3]; Compound A 30 mg/kg oral 1 h pre surgery + Compound A 5 h post, day 1 of study): 79.2 ± 2.4 g
Paw withdrawal threshold ([3]; Compound A 30 mg/kg oral 1 h pre surgery + Compound A 5 h post, day 2 of study): 81.7 ± 2.1 g
Paw withdrawal threshold ([3]; Compound A 30 mg/kg oral 1 h pre surgery + Compound A 5 h post, day 3 of study): 80.0 ± 2.2 g
Paw withdrawal threshold ([3]; Compound A 30 mg/kg oral 1 h pre surgery + Compound A 5 h post, day 4 of study): 77.5 ± 1.1 g
Paw withdrawal threshold ([3]; Compound A 30 mg/kg oral 1 h pre surgery + Compound A 5 h post, day 6 of study): 73.3 ± 3.1 g
Paw withdrawal threshold ([3]; Compound A 30 mg/kg oral 1 h pre surgery + Compound A 5 h post, day 7 of study): 70.8 ± 2.4 g
Paw withdrawal threshold ([3]; Compound A 30 mg/kg oral 1 h pre surgery + Compound A 5 h post, pre-surgery (baseline)): 101.7 ± 1.1 g
Paw withdrawal threshold ([3]; Compound A 30 mg/kg oral 1 h pre surgery + vehicle 5 h post, day 1 of study): 75.8 ± 2.4 g
Paw withdrawal threshold ([3]; Compound A 30 mg/kg oral 1 h pre surgery + vehicle 5 h post, day 2 of study): 69.2 ± 3.7 g
Paw withdrawal threshold ([3]; Compound A 30 mg/kg oral 1 h pre surgery + vehicle 5 h post, day 3 of study): 70.8 ± 2.0 g
Paw withdrawal threshold ([3]; Compound A 30 mg/kg oral 1 h pre surgery + vehicle 5 h post, day 4 of study): 67.5 ± 1.7 g
Paw withdrawal threshold ([3]; Compound A 30 mg/kg oral 1 h pre surgery + vehicle 5 h post, day 6 of study): 70.0 ± 2.2 g
Paw withdrawal threshold ([3]; Compound A 30 mg/kg oral 1 h pre surgery + vehicle 5 h post, day 7 of study): 65.0 ± 3.2 g
Paw withdrawal threshold ([3]; Compound A 30 mg/kg oral 1 h pre surgery + vehicle 5 h post, pre-surgery (baseline)): 105.0 ± 1.3 g
inhibition of hyperalgesia ([3]; single dose 1 h prior to surgery): significant inhibition of hyperalgesia only at 1 day post surgery
